# Assay results published in patent US5998405A, “Fused tropane-derivatives as neurotransmitter reuptake inhibitors” (NeuroSearch A/S, priority 1996, dated 1999).
# Counter-ions that a name gives are not always drawn.
# How the values were obtained:
# Type in all cases: biochemical, Wistar rat
# [1] = target: T1, ^3 H-dopamine uptake in striatal synaptosomes (Rattus norvegicus, UniProt P23977); assay: In vitro inhibition of 3H-dopamine (3H-DA) uptake in striatal synaptosomes; conditions: 3H-DA 1 nM, 25 min at 37° C.
# T1 construct: Corpi striati from male Wistar rats (150-200 g) are homogenized; from tissue; host or cells: striatum (corpus striatum) of male Wistar rats, P2 synaptosomal pellet
# T1 sequence (P23977 whole entry): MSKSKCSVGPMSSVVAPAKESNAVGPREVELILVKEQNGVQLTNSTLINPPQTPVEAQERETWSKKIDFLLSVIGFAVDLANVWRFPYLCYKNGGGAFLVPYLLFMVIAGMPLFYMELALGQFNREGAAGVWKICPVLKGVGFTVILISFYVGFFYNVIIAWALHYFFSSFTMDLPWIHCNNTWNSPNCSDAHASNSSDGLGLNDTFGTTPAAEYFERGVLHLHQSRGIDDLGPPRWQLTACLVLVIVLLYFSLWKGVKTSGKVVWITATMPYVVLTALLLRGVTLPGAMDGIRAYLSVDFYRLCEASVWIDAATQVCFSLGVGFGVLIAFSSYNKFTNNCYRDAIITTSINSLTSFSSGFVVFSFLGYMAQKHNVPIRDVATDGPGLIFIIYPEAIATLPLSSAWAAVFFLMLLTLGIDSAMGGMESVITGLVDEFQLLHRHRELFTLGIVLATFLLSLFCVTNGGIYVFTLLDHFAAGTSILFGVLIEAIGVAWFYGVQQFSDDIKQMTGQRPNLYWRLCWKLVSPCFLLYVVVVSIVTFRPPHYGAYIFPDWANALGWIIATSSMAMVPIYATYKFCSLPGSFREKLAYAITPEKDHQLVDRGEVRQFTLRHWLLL
# Excerpt: (§1) The compounds of the invention have been tested for their ability to inhibit reuptake of dopamine(DA) noradrenaline(NA) and serotonine(5-HT) in synaptosomes.
# (§2) Specific neurotransmitter transporters/uptake sites on nerve terminals presumably function to terminate neuronal signaling by removing the neurotransmitters dopamine, noradrenaline and serotonine, respectively, from the synaptic cleft. The activity of the transporter integral proteins can be measured in vitro by synaptosomal uptake of ^3 H-dopamine, ^3 H-noradrenaline and ^3 H-serotonine, respectively.
# In Vitro Inhibition of ^3 H-dopamine (^3 H-DA) Uptake in Striatal Synaptosomes
# (§3) Tissue preparations: Preparations are performed at 0-4° C. unless otherwise indicated. Corpi striati from male Wistar rats (150-200 g) are homogenized for 5-10 sec in 100 volumes of ice-cold 0.32M sucrose containing 1 mM pargyline using an Ultra-Turrax homogenizer. Monoamine oxidase activity will be inhibited in the presence of pargyline. The homogenate is centrifuged at 1000×g for 10 min. The resulting supernatant is then centrifuged at 27,000×g for 50 min and the supernatant is discarded. The pellet (P2) is resuspended in oxygenated (equilibrated with an atmosphere of 96% O2 : 4% CO2 for at least 30 min) Krebs-Ringer incubation buffer (8000 ml per g of original tissue) at pH 7.2 containing 122 mM NaCl, 0.16 mM EDTA, 4.8 mM KCl, 12.7 mM Na2 HPO4, 3.0 mM NaH2 PO4, 1.2 mM MgSO4, 1 mM CaCl2, 10 mM glucose and 1 mM ascorbic acid.
# (§4) Assay: Aliquots of 4.0 ml tissue suspension are added to 100 μl of test solution and 100 μl of ^3 H-DA (1 nM, final concentration), mixed and incubated for 25 min at 37° C. Non-specific uptake is determined using benztropine (10 μM, final concentration). After incubation the samples are poured directly onto Whatman GF/C glass fibre filters under suction. The filters are then washed three times with 5 ml of ice-cold 0.9% (w/v) NaCl solution. The amount of radioactivity on the filters is determined by conventional liquid scintillation counting. Specific uptake is calculated as the difference between total uptake and non-specific uptake.
# The test value is given as IC50 (the concentration (μM) of the test substance which inhibits the specific binding of ^3 H-DA by 50%).
# [2] = target: T2, ^3 H-noradrenaline uptake in hippocampal synaptosomes (Rattus norvegicus, UniProt Q63380); assay: In vitro inhibition of 3H-noradrenaline (3H-NA) uptake in hippocampal synaptosomes; conditions: 3H-NA 1 nM, 90 min at 37° C.
# T2 construct: Hippocampi from male Wistar rats (150-200 g) are homogenized; from tissue; host or cells: hippocampus of male Wistar rats, P2 synaptosomal pellet
# T2 sequence (Q63380 1-617): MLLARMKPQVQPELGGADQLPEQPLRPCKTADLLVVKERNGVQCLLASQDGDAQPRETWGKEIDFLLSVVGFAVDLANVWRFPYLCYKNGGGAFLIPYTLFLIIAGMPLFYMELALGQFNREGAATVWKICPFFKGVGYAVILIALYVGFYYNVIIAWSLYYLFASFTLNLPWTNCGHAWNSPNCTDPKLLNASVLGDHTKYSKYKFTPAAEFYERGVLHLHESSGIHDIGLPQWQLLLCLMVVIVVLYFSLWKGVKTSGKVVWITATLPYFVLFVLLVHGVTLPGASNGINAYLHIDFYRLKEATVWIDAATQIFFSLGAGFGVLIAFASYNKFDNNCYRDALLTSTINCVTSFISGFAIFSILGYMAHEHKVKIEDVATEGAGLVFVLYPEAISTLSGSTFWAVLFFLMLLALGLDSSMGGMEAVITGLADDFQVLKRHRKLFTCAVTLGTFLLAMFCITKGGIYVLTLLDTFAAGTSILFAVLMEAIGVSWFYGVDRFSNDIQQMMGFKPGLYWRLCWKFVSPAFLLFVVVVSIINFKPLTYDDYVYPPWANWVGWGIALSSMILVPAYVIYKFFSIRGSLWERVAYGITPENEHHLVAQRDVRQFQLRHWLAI
# Excerpt: as §1, §2
# In Vitro Inhibition of ^3 H-noradrenaline (^3 H-NA) Uptake in Hippocampal Synaptosomes
# as §3, with “Tissue preparation:” for “Tissue preparations:”, “indicated. Hippocampi” for “indicated. Corpi striati”, “buffer (2000” for “buffer (8000”, “MgSO4, 0.97” for “MgSO4, 1”
# as §4, with “H-NA” for “H-DA”, “90” for “25”, “desipramine (1” for “benztropine (10”
# The test value is given as IC50 (the concentration (μM) of the test substance which inhibits the specific binding of ^3 H-NA by 50%).
# [3] = target: T3, ^3 H-5-hydroxytryptamine (serotonin) uptake in cortical synaptosomes (Rattus norvegicus, UniProt P31652); assay: In vitro inhibition of 3H-5-hydroxytryptamine (3H-5-HT, serotonin) uptake in cortical synaptosomes; conditions: 3H-5-HT 1 nM, 30 min at 37° C.
# T3 construct: Cerebral cortices from male Wistar rats (150-200 g) are homogenized; from tissue; host or cells: cerebral cortex of male Wistar rats, P2 synaptosomal pellet
# T3 sequence (P31652 whole entry): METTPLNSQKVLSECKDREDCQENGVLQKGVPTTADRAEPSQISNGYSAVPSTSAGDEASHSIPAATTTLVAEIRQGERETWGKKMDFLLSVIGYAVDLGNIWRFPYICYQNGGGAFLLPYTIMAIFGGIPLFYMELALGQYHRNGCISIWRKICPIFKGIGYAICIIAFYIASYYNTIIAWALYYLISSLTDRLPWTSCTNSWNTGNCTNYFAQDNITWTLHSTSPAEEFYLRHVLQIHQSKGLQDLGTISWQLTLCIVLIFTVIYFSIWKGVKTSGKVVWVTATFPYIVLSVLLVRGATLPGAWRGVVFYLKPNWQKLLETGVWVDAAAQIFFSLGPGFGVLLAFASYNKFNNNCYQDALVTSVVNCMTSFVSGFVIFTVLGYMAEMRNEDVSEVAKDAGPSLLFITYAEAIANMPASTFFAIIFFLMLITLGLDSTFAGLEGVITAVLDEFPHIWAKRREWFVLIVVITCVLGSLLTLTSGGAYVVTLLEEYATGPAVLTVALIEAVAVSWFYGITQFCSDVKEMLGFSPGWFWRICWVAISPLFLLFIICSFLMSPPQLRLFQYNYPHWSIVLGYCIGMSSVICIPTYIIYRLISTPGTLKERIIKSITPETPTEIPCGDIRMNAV
# Excerpt: as §1, §2
# In Vitro Inhibition of ^3 H-5-hydroxytryptamine (^3 H-5-HT, Serotonin) Uptake in Cortical Synaptosomes
# as §3, with “preparation:” for “preparations:”, “Cerebral cortices” for “Corpi striati”, “(1000” for “(8000”
# as §4, with “H-5-HT” for “H-DA”, “30” for “25”, “citalopram (1” for “benztropine (10”
# The test value is given as IC50 (the concentration (μM) of the test substance which inhibits the specific binding of ^3 H-5-HT by 50%).
Compound,IC50 [1] [nM],IC50 [2] [nM],IC50 [3] [nM]
"O=C1CCN2[C@H]3CC[C@@H]2[C@@H]1[C@@H](c1ccc(Cl)c(Cl)c1)C3 [(1S,2S,4S,7R)-2-(3,4-Dichlorophenyl)-8-azatricyclo[5.4.0.0^4,8]undecan-11-one]",180,35,7.5
"OC1CCN2[C@H]3CC[C@@H]2[C@@H]1[C@@H](c1ccc(Cl)c(Cl)c1)C3 (stereo partly drawn) [(1S,2S,4S,7R)-2-(3,4-Dichlorophenyl)-8-azatricyclo[5.4.0.0^4,8]undecan-11-ol]",75,4.1,2.8
"CON=C1CCN2[C@H]3CC[C@@H]2[C@@H]1[C@@H](c1ccc(Cl)c(Cl)c1)C3 [(1S,2S,4S,7R)-2-(3,4-Dichlorophenyl)-8-azatricyclo[5.4.0.0^4,8]undecan-11-one O-methyl-oxime]",12,2,3.3
"CC(=O)OC1CN2[C@H]3CC[C@@H]2[C@@H]1[C@@H](c1ccc(Cl)c(Cl)c1)C3 (stereo partly drawn) [(1S,3S,4S,8R)-3-(3,4-Dichlorophenyl)-7-azatricyclo[5.3.0.0^4,8]dec-5-yl acetate fumarate]",210,6.1,7.5
"OC1CN2[C@H]3CC[C@@H]2[C@@H]1[C@@H](c1ccc(Cl)c(Cl)c1)C3 (stereo partly drawn) [(1S,3S,4S,8R)-3-(3,4-Dichlorophenyl)-7-azatricyclo[5.3.0.0^4,8]decan-5-ol]",250,7.4,1.8
"COC1CN2[C@H]3CC[C@@H]2[C@@H]1[C@@H](c1ccc(Cl)c(Cl)c1)C3 (stereo partly drawn) [(1S,3S,4S,8R)-3-(3 ,4-Dichlorophenyl)-5-methoxy-7-azatricyclo[5.3.0.0^4,8]decane]",22,1.4,0.1
"O=C1CN2[C@H]3CC[C@@H]2[C@@H]1[C@@H](c1ccc(Cl)c(Cl)c1)C3 [(1S,3S,4S,8R)-3-(3,4-Dichlorophenyl)-7-azatricyclo[5.3.0.0^4,8]decan-5-one]",120,5.2,2.6
"CON=C1CN2[C@H]3CC[C@@H]2[C@@H]1[C@@H](c1ccc(Cl)c(Cl)c1)C3 [(1S,3S,4S,8R)-3-(3,4-Dichlorophenyl)-7-azatricyclo[5.3.0.0^4,8]decan-5-one O-methyl-oxime]",16,0.9,3.2
